Assay results taken from patent publication US8563526B2, “Triazole derivatives, their preparation and their application in therapeutics” (Institut National de la Sante et de la Recherche Medicale …, priority 2008, dated 2013).
Like-named read-outs stand apart in the source and are kept apart here.

Experiments:
[1] = system: MiaPaCa cells; experiment: MTT cell survival assay on MiaPaCa cells; assay type: cell-based; conditions: for inhibition at 50 µM: Homo sapiens, MIA PaCa-2, 48 h
Procedure: Pancreactic cancer cell lines, MiaPaCa cells were cultured in DMEM medium (Gibco) supplemented with 10% fetal bovine serum (FBS). Cells were seeded at a densitiy of 15,000 cells per well in 96 well View Plate™ (Packard) in 250 μl of medium containing the same components as described above.
(§1) Cells were allowed to adhere and proliferate for 24 hr. At that time, culture medium was removed and serial dilutions from 10 nM to 200 μM of the test compounds were added in culture medium. Gemcitabine and no treatment were included as positive and negative controls. Plates were further incubated at 37° C. and 5% CO2 for 48 hours. The number of viable cells remaining after the appropriate treatment was determined by Colorimetric Assay (3-(4,5-dimethylthiazol-2-yl)-2,5-diphenyl tetrazolium bromide, MTT).
(§2) Inhibition of MiaPaCa and Capan-2 cells were tested at different doses of compounds of the invention: 50 μM, 100 μM and 200 μM.
(§3) Cells were seeded on 96-well plates in 250 μL media and 24 hours later, compound to be tested was added in 250 μL of media to the desired final concentration (from 10 nM to 200 μM). After 48 hours, the number of viable cells remaining after the appropriate treatment was determined by MTT. Minimum Efficient Dose (MED) and IC50 values was evaluated from the dose-dependency study. The results in FIGS. 1, 2, 4 and 5 are presented in percentage of cell growth inhibition compared to control non treated cells.

[2] = system: Capan-2 cells; experiment: MTT cell survival assay on Capan-2 cells; assay type: cell-based; conditions: for cells die / cell viability: FIG. 2; for inhibition at 50 µM: Homo sapiens, Capan-2, 48 h, read-out: Inhibition effect on Capan-2 at 50 μM (%)
Procedure: For Capan-2 cell lines, the cells were cultured in RPMI 1640 medium supplemented with 10% FBS and 1% glutamine. Cells were seeded at a densitiy of 20,000 cells per well in 96 well View Plate™ (Packard) in 250 μl of medium containing the same components as described above.
as §1, §2, §3

[3] = system: MiaPaCa cells; experiment: Apoptosis evaluation on MiaPaCa cells by flow cytometry (sub-G0 ratio); assay type: cell-based; conditions: 24 h after administration, FIG. 3
Procedure: Cells were plated in 10 cm dishes at the density of 300 000 cells/plate. Cells were stopped for flow cytometry analysis 12, 24 and 48 h post-treatment. After trypsination, cell pellet was washed with PBS and fixed in cold-ethanol 70% overnight at 4° C. After a wash with phosphate-citrate buffer, cells were treated with 200 μL RNA-ase (500 μg/mL), labeled with 1 mL propidium iodide (50 μg/mL), and immediately analyzed by flow cytometry (FACS Calibur, Becton Dickinson, Le Pont-De-Claix, France). Cell death analysis was done on 1,000,000 cells, evaluating the sub-G0 ratio. Each sample was performed in triplicate.

[4] = system: MiaPaCa-2 cells; experiment: Combination effect with gemcitabine in vitro, MTT assay on MiaPaCa-2 cells; assay type: cell-based; conditions: combined with gemcitabine, MiaPaCa-2, FIG. 9
Description: FIG. 9 illustrates the beneficial combination effect of compounds (1, 4 or 18) in vitro based on the results obtained by using a MTT assay on MiaPaCa-2 cells.
Three compounds (compounds n^o 1, 4 and 18) combined with gemcitabine were accessed their anticancer activity.

[5] = system: MiaPaCa-2-xenografed tumors; experiment: MiaPaCa-2 xenograft tumor growth in nude mice; assay type: in vivo
Procedure: The antitumor effects of the active compounds 1 and 4 were evaluated in nude mice bearing MiaPaCa-2-xenografed tumors. Institutional guidelines for the proper and human use of animals in research were followed. Approximately 1×10^7 MiaPaCa-2 cells were inoculated subcutaneously with 0.1 mL of Matrigel (BD Biosciences Discovery Labware) to 6-week-old male xenografed nude mice. When MiaPaCa-2 tumors reached 100 mm^3, mice were randomly selected for treatment with test compound and no treated mice were used as control. Each experimental group consisted of 8 mice. After randomization, 150 mg/kg test compound was injected every three days by i.p. injection for 5 weeks. The combination injection was performed every two days. Tumor volume measurements were performed once weekly and calculated by the formula length×width×depth×0.5236.

[6] = system: p-8 mRNA; experiment: p-8 mRNA expression in MiaPaCa-2 cells by quantitative RT-PCR; assay type: cell-based; conditions: FIG. 12
Description: The stress-associated protein, p-8 with antiapoptotic properties was strongly expressed in two of the most resistant pancreactic cancer cell lines, while Heat Shock Protein 27 (Hsp27) is a protein which can be over-expressed in many tumor cells and protects against apoptotic cell death triggered by various stimuli. So in order to study the intracellular target of the active compounds, the effect of the active compounds on the expression of p-8 and Hsp27 mRNA in MiaPaCa-2 cells were investigated by quantitative RT-PCR. First-strand cDNA was synthesized in 20 μL reaction with 1 μg total RNA using Expand Reverse Transcriptase (Roche, Meylan, France) following the instructions of the manufacturer. Quantitative PCR was done with the Light Cycler system (Roche) and Takara (Berkeley, Calif.) reagents. Five microliters of 10-fold diluted cDNA were mixed with 10 μL SYBR Premix Ex Taq (including Taq polymerase, reaction buffer, MgCl2, SYBR green I dye, and deoxynucleotide triphosphate mix) and […] forward and reverse primers (TBP primers are used as a control) in a volume of 20 μL. […] Each sample was analyzed in duplicate and the experiment was repeated twice. Results were analyzed using RelQuant (Roche) and expressed as percent of control values.

[7] = system: pancreatic cancer; conditions: pancreatic cancer patients, first-line treatment; cited from earlier work
[8] = 50 μM, 48 hours, MTT, Table II, read-out: Inhibition effect on MiaPaCa at 50 μM (%)
[9] = 50 μM, 48 hours, MTT, Table III, read-out: Inhibition effect on MiaPaCa-2 at 50 μM (%)
[10] = 50 μM, 48 hours, MTT, Table III

COC(=O)c1nc(C#Cc2ccc(C(F)(F)F)cc2)n([C@@H]2O[C@H](COC(C)=O)[C@@H](OC(C)=O)[C@H]2OC(C)=O)n1 [Compound 1, Methyl 5-(4-trifluoromethylphenylethynyl)-1-(2,3,5-tri-O-acetyl-β-D-ribofuranosyl)-1H-[1,2,4]triazole-3-carboxylate]
inhibition at 50 µM [1, 8]: > 50% | cells die ([1]; MiaPaCa, 50 μM, FIG. 1): about 60% | cells die ([2]; Capan-2, 50 μM): about 60% | cells die ([2]; Capan-2, 100 μM): more than 80% | inhibition at 50 µM ([2]; 50 μM, 48 hours, MTT, Table II): > 50% | apoptosis compared to cells treated with gemcitabine [3]: about 4 times | apoptosis compared to non-treated cells [3]: about 8 times | antiproliferation in combination with gemcitabine [4]: more efficiency on antiproliferation | MiaPaCa-2 tumor volume ([5]; 150 mg/kg i.p. every three days for 5 weeks, compound alone, FIG. 10): reduce MiaPaCa-2 tumor volume | adverse effect of drug treatment ([5]; alone or in combination with gemcitabine, nude mice, FIG. 11): absence of adverse effect | tumor growth ([5]; combined with gemcitabine, injection every two days, FIG. 10): almost sinificantly inhibited | p-8 mRNA expression ([6]; combination with gemcitabine): down-regulated

COC(=O)c1nc(C#CC2=CCCCC2)n([C@@H]2O[C@H](COC(C)=O)[C@@H](OC(C)=O)[C@H]2OC(C)=O)n1 [Compound 2, Methyl 5-(Cyclohexenylethynyl)-1-(2,3,5-tri-O-acetyl-β-D-ribofuranosyl)-1H-[1,2,4]triazole-3-carboxylate]
inhibition at 50 µM [1, 8]: 21.3% | cell viability ([2]; Capan-2, doses higher than 100 μM): cell viability rapidly decreases | inhibition at 50 µM ([2]; 50 μM, 48 hours, MTT, Table II): 57.6%

NC(=O)c1nc(C#Cc2ccc(Br)cc2)n(COCCO)n1 [Compound 14, 1-((2-hydroxyethoxy)methyl)-5-(2-(4-bromophenyl)ethynyl)-1H-1,2,4-triazole-3-carboxamide]
inhibition at 50 µM [1, 9]: > 50% | inhibition at 50 µM [2, 10]: > 50%

NC(=O)c1nc(C#Cc2ccc(C(F)(F)F)cc2)n(COCCOC(=O)c2ccccc2)n1 [Compound 15, 1-[(2-(benzoyloxy)ethoxy)methyl]-5-(2-(4-trifluoromethylphenyl)ethynyl)-1H-1,2,4-triazole-3-carboxamide]
inhibition at 50 µM [1, 9]: > 50% | inhibition at 50 µM [2, 10]: > 50%

CCCCCCCCCCCCn1cc(-c2nc(C(N)=O)nn2COCCO)nn1 [Compound 17]
Inhibition effect on MiaPaCa-2 at 50 μM (%) [1, 10]: 43.2% | Inhibition effect on Capan-2 at 50 μM (%) [2, 10]: 29.5%

COC(=O)c1nc(-c2cn(Cc3ccc4ccc5cccc6ccc3c4c56)nn2)n(COCCOC(C)=O)n1 [Compound 18, Methyl 1-((2-acetoxyethoxy)methyl)-5-(1-((pyren-3-yl)methyl)-1H-1,2,3-triazol-4-yl)-1H-1,2,4-triazole-3-carboxylate]
inhibition at 50 µM [2, 10]: > 50% | antiproliferation in combination with gemcitabine [4]: more efficiency on antiproliferation | p-8 mRNA expression ([6]; single treatment): significantly inhibit

NC(=O)c1nc(-c2cn(Cc3ccc4ccc5cccc6ccc3c4c56)nn2)n(COCCO)n1 [Compound 19, 1-((2-hydroxyethoxy)methyl)-5-(1-((pyren-3-yl)methyl)-1H-1,2,3-triazol-4-yl)-1H-1,2,4-triazole-3-carboxamide]
inhibition at 50 µM [1, 9]: 59.3% | inhibition at 50 µM [2, 10]: 43.4%

NC(=O)c1nc(-c2cn(Cc3ccc4ccc5cccc6ccc3c4c56)nn2)nn1COCCO [Compound 20, 1-((2-hydroxyethoxy)methyl)-3-(1-((pyren-3-yl)methyl)-1H-1,2,3-triazol-4-yl)-1H-1,2,4-triazole-5-carboxamide]
inhibition at 50 µM [1, 9]: 28.7% | inhibition at 50 µM [2, 10]: 60.6%

NC(=O)c1nc(-c2cn(-c3cccc4ccccc34)nn2)n(COCCO)n1 [Compound 21, 1-((2-hydroxyethoxy)methyl)-5-(1-(naphthalen-1-yl)-1H-1,2,3-triazol-4-yl)-1H-1,2,4-triazole-3-carboxamide]
inhibition at 50 µM [1, 9]: 30.9% | inhibition at 50 µM [2, 10]: 55.6%

COC(=O)c1nc(-c2cn(-c3ccc4ccc5cccc6ccc3c4c56)nn2)n(COCCOC(C)=O)n1 [Compound 22, Methyl 1-((2-acetoxyethoxy)methyl)-5-(1-(pyren-3-yl)-1H-1,2,3-triazol-4-yl)-1H-1,2,4-triazole-3-carboxylate]
inhibition at 50 µM [1, 9]: 40.7% | inhibition at 50 µM [2, 10]: 63.9%

Nc1ccn([C@@H]2O[C@H](CO)[C@@H](O)C2(F)F)c(=O)n1 [Gemcitabine, reference compound]
inhibition at 50 µM [1, 8]: 29.3% | inhibition at 50 µM [1, 9]: 29.3% | cells remaining alive ([1]; MiaPaCa, 50 μM or 100 μM, FIG. 1): about 80% | cell viability ([2]; Capan-2, with dose increase): cell viability stagnates | inhibition at 50 µM ([2]; 50 μM, 48 hours, MTT, Table II): 61.7% | inhibition at 50 µM [2, 10]: 61.7% | response [7]: 12%
